Active and inactive are the calls of the source. Where only a bound is given, the exact number is not on record here.

The results in this text go back to ChEMBL document CHEMBL1201862, “PubChem BioAssay data set” (2004).

Assay [1] is described as follows: Plasmodium falciparum Dd2 Sybr green parasite growth Measured in Cell-Based and Microorganism Combination System Using Plate Reader - 2153-01_Inhibitor_Dose_DryPowder_Activity_Set3. The class given is functional.
Assay [2] can be described thus: HepG2 cell cytotoxicity, dose response, cytotoxicity control, plate reader, dry powder samples (AID 1159569).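 Further: inhibitor potency with signal falling toward the positive control level.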 The class given is functional, cell-based.
A short description of assay [3]: P. falciparum Dd2 growth inhibitors, dose response, SYBR Green, dry powder samples (AID 1159566).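 Further: potency for growth inhibition with lower SYBR green DNA signal.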 In kind it is functional, cell-based.
The nature of assay [4]: P. falciparum ATP4 D1247Y mutant growth inhibitors, dose response, NITD609-resistant line, SYBR Green, dry powder (AID 1159571).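 Further: parasites synchronized at ring stage by sorbitol before testing.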 In kind it is functional, cell-based.
Assay [5] is described as follows: P. falciparum Dd2 growth inhibitors, dose response, SYBR Green, cherry-picked samples (AID 1159567). The class given is functional, cell-based.
Assay [6] can be described thus: P. falciparum 3D7-ScDHODH growth inhibitors, dose response, SYBR Green, dry powder samples (AID 1159570).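 Further: parasite growth measured after 72 hours of compound exposure.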 In kind it is functional, cell-based.
Assay [7] addresses Protein-tyrosine kinase 2-beta (Homo sapiens, UniProt Q14289).
The nature of assay [8]: cells. In kind it is functional, cell-based. The following applies: INS-1E.
The test system of assay [9] is H9c2. The assay is described as follows: cells. In kind it is functional, cell-based. The following applies: Rattus norvegicus, H9c2, Myocardium.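 Further: confirmatory concentration-response retest of ultra-high-throughput screening hits for modulation of myocardial damage; cell death induced by hydrogen peroxide oxidative stress; compound pretreatment for 60 min then peroxide exposure for 2 h; potency is for protecting the cells against peroxide damage rather than for killing them.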
A short description of assay [10]: Dose-response inhibition of insulin secretion in a rat insulinoma line at 5 mM glucose (AID 1117331). The note with it: INS-1E. The class given is functional, cell-based.
Assay [11] deals with Transitional endoplasmic reticulum ATPase (Homo sapiens, UniProt P55072, C522A). Briefly: Luminescence counterscreen assay for p97 inhibitors: dose response biochemical high throughput screening assay to identify inhibitors of the C522A mutant p97 ATPase: synthesized compounds. [Related pubchem assays: 1481, 1517, 1551 ]. (The purpose of a counterscreen is to sort out artefacts and off-target activity.)
Sequence of Transitional endoplasmic reticulum ATPase (Homo sapiens, UniProt P55072, C522A) (P55072 2-806 C522A limits assumed): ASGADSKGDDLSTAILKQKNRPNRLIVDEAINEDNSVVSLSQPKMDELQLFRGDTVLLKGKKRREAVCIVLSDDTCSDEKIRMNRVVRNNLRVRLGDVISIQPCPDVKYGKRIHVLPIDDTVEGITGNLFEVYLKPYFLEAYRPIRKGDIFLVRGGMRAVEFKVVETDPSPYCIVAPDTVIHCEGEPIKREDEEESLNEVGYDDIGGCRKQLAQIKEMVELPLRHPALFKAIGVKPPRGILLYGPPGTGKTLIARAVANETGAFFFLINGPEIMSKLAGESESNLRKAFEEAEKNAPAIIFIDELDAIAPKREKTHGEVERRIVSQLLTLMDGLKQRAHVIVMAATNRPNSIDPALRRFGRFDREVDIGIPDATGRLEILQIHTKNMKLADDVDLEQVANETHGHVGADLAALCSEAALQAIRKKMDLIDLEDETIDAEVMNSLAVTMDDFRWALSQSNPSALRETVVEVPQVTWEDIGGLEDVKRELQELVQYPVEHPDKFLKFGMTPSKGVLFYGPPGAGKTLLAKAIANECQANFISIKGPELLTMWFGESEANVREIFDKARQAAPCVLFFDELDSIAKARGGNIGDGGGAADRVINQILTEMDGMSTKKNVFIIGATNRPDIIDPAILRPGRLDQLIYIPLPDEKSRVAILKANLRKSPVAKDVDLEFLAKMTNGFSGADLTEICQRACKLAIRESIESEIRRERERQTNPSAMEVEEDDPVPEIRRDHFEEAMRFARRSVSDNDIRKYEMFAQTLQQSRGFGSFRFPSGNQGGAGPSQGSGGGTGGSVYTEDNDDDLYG

Assay [12] has as its target Transitional endoplasmic reticulum ATPase (Homo sapiens, UniProt P55072). Briefly: Luminescence dose response biochemical high throughput screening assay for inhibitors of the p97 ATPase: synthesized compounds. [Related pubchem assays: 1481, 1517 ].
Assay [13] addresses Aryl hydrocarbon receptor (Homo sapiens, UniProt P35869). The assay is described as follows: Luminescence-based cell-based high throughput dose response assay for activators of the Aryl Hydrocarbon Receptor (AHR). [Related pubchem assays: 2796 (Primary screen (AHR activators in singlicate)), 2845 (Confirmation screen (AHR activators in triplicate)), 434939 (Counterscreen (PXR activators in triplicate)), 2804 (Summary (AHR activators))]. In kind it is ADME.

In assay [14] the test system is HeLa. Briefly: HeLa cell cytotoxicity, dose response, cytotoxicity control for MITF activator project, CellTiter-Glo luminescence, cherry-pick samples (AID 540259). The class given is functional, cell-based. The note with it: Homo sapiens. In general terms: ATP-based viability assays read luminescence as a measure of living cells.
The nature of assay [15]: A cytotoxicity screen of small molecule inhibitors of the PhoP region in Salmonella typhi identified in the primary screen. [Related pubchem assays: 1850, 1864, 1985 ]. In kind it is functional.
Assay [16] is described as follows: M. tuberculosis growth inhibition, HTS (AID 449762). In kind it is functional.
The target in assay [17] is Genome polyprotein (Hepatitis C virus, UniProt Q2Q167). Briefly: HCV core protein dimerization inhibitors, dose response, biochemical, TR-FRET (AID 2159).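 Further: blocks dimerization of HCV core protein measured by TR-FRET between tagged core106 pairs.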 Details: species or system Hepacivirus hominis.
Sequence of Genome polyprotein (Q2Q167 whole entry): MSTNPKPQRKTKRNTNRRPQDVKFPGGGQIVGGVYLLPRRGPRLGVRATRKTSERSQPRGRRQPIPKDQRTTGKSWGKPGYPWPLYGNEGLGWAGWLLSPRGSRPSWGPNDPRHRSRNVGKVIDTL
For assay [18], the target named is NADPH oxidase 1 (Homo sapiens, UniProt Q9Y5S8). The assay is described as follows: Late-stage luminescence-based cell-based dose response assay to identify inhibitors of NADPH oxidase 1 (NOX1): Synthesized analogs 2. The class given is functional.
Sequence of NADPH oxidase 1 (Q9Y5S8 whole entry): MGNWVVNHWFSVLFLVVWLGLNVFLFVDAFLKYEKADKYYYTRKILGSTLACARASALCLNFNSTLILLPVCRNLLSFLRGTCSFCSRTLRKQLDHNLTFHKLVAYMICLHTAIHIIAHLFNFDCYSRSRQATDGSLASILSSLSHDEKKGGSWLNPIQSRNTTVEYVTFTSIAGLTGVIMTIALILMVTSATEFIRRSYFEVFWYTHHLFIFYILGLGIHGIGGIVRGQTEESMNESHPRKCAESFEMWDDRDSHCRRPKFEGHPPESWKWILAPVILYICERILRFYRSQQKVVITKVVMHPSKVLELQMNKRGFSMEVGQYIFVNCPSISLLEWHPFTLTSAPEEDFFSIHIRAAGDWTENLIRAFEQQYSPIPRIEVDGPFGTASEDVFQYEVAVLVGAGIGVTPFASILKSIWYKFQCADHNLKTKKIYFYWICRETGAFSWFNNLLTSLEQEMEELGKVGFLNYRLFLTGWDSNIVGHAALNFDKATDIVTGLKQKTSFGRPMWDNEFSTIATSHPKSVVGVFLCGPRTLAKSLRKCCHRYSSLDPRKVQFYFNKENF
Assay [19] deals with Glucose-6-phosphate 1-dehydrogenase (Homo sapiens, UniProt P11413). Briefly: human G6PD enzyme inhibitors, dose response, selectivity assay for P. falciparum G6PD inhibitor project, biochemical, fluorescence (AID 504792). In kind it is functional.
Sequence of Glucose-6-phosphate 1-dehydrogenase (P11413 whole entry): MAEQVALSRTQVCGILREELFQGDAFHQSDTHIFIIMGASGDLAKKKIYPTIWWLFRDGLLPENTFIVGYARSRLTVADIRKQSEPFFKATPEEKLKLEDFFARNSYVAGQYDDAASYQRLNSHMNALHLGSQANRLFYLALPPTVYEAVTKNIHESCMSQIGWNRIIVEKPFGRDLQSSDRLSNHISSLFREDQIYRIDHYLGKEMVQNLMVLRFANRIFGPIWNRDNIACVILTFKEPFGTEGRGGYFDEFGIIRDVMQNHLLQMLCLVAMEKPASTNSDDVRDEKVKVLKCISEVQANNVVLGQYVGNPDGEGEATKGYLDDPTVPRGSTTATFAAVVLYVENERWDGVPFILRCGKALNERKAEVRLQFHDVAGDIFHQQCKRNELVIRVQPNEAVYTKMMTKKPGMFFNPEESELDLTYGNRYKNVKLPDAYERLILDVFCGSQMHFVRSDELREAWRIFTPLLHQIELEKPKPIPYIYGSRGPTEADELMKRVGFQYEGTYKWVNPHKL
For assay [20], the target named is Heat shock protein HSP 90-alpha (Homo sapiens, UniProt P07900). The assay is described as follows: Luminescence-based dose response biochemical high throughput screening assay for inhibitors of the Heat Shock Protein 90 (HSP90). [Related pubchem assays: 1831 (Summary AID.), 1846 (Confirmation screen.), 1789 (Primary screen.)].
Assay [21] addresses T1, Protein skinhead-1 (Caenorhabditis elegans, UniProt P34707).
T1 sequence (P34707 whole entry): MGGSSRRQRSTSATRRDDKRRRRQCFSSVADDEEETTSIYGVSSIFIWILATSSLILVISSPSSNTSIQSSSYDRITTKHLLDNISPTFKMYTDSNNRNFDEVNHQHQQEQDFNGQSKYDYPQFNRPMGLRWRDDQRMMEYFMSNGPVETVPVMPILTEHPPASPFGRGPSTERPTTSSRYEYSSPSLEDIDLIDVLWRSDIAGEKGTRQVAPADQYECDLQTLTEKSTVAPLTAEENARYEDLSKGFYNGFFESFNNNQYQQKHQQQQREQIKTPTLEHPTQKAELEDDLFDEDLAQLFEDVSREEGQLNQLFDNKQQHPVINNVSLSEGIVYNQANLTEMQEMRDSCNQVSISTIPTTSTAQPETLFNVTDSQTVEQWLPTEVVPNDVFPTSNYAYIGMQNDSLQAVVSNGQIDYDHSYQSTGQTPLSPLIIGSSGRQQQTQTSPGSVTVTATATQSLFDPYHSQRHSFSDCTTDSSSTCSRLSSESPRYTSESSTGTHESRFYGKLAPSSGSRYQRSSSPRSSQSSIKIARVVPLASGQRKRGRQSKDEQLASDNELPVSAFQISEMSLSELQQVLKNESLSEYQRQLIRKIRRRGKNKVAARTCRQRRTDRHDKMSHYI
In kind it is functional.

Sequence of Protein-tyrosine kinase 2-beta (Q14289 whole entry): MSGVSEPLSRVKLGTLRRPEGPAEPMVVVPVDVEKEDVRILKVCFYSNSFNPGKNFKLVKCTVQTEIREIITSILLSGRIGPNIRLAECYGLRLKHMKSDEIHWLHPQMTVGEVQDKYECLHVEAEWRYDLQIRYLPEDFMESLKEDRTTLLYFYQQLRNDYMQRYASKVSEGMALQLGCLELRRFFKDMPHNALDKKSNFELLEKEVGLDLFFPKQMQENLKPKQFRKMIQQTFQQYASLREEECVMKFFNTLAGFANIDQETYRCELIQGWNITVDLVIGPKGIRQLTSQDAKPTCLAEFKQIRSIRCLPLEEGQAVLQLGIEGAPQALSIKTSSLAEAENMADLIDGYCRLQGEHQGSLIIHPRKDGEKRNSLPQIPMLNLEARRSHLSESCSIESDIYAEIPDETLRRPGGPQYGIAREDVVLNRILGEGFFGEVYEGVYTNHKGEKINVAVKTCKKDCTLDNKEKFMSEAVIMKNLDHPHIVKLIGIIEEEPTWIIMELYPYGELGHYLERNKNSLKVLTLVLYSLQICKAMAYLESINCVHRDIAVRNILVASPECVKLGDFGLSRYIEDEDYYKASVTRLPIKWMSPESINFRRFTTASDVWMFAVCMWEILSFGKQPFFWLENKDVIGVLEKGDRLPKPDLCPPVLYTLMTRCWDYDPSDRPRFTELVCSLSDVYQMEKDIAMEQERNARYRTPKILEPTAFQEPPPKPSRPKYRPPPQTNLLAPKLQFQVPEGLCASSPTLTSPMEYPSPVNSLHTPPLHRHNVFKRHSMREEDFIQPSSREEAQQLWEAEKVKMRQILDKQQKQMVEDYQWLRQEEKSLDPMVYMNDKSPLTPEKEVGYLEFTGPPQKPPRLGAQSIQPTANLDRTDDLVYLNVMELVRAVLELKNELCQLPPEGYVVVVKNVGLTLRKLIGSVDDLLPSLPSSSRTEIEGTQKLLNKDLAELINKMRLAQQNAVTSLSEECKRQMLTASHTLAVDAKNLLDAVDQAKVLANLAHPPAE
Sequence of Transitional endoplasmic reticulum ATPase (Homo sapiens, UniProt P55072) (P55072 whole entry): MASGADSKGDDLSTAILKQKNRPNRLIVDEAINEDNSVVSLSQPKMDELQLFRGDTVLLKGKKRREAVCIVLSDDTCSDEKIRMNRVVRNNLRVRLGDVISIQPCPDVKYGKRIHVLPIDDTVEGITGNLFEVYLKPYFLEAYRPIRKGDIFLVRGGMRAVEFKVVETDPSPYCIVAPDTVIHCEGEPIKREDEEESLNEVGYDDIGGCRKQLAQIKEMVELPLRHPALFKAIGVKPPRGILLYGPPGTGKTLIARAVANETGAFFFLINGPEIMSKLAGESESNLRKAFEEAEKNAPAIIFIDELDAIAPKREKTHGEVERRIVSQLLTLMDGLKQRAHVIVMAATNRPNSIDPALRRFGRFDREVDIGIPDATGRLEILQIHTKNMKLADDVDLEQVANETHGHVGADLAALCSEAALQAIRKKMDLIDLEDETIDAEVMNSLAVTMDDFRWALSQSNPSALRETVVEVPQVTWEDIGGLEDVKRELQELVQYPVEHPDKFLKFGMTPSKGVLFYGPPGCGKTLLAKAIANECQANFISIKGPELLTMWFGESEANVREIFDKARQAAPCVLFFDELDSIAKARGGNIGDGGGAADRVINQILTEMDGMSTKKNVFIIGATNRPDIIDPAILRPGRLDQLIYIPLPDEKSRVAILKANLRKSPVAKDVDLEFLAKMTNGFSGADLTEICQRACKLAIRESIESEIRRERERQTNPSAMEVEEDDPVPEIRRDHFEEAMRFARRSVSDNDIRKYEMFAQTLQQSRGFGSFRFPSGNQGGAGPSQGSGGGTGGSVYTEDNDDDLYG
Sequence of Aryl hydrocarbon receptor (P35869 whole entry): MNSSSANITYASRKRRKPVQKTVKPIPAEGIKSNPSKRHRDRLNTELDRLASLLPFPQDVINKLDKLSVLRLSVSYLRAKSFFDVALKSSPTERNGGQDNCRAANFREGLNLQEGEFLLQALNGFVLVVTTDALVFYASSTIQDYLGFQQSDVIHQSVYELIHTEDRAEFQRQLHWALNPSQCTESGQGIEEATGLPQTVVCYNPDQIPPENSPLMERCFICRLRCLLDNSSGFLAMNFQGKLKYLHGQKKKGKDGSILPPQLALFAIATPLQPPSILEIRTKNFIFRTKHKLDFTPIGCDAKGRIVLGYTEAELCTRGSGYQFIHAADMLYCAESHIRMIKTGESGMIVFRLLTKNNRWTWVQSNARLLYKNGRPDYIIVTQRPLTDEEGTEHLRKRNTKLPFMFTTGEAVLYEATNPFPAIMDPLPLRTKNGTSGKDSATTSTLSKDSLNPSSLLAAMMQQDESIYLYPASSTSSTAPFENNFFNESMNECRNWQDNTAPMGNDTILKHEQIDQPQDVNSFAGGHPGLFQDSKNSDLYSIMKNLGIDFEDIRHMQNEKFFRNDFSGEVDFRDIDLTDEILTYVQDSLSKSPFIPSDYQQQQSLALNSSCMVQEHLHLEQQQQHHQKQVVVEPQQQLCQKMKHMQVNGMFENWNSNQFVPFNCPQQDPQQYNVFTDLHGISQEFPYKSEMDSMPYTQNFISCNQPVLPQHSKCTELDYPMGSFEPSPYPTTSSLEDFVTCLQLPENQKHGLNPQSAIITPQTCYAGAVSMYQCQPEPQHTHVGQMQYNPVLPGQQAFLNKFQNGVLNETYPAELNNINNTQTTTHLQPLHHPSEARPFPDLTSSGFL

In general, AC50 refers to the midpoint of the concentration-response curve, whichever way the signal moves. On to `CCCC(=O)Nc1ccc2c(c1)OC[C@@H](C)N(Cc1cccc(F)c1)C[C@@H](C)[C@H](OC)CN(C)C2=O`, for which the AC50 in assay [1] is 1.82 µM (active); in [2], 58.9 µM (active); in assay [3], 0.884 µM (active); in [4] it was 2.24 µM (active); in assay [5], 1.09 µM (active); in [6], 5.76 µM (active).
For orientation: IC50 means the concentration needed to halve the response being measured. For the molecule `CCOC(=O)C1=C(c2ccccc2)OC(N)=C(C#N)C1C1CCCCC1` (stereo unspecified), in assay [7], the IC50 is reported as > 69.5 µM (not active).
Turning to `O=c1[nH]c2ccccc2n1CCCN1CCC(n2c(=O)[nH]c3cc(Cl)ccc32)CC1` [DOMPERIDONE], the IC50 was > 33.3 µM (inactive) in assay [8], > 79 µM (inactive) in assay [9] and 12.4 µM (inactive) in assay [10].
Consider `N#CC(C#N)=Cc1c2ccccc2cc2ccccc12`, for which the IC50 in [11] and in assay [12] was > 50 µM (not active) throughout.
For orientation: EC50 means the concentration at which the effect is half-maximal. For `CCCCc1cc2c(c(NC(C)=O)n1)c(=O)oc1ccccc12`, the EC50 in assay [13] was 3.25 µM (active).
For the molecule `Nc1ccc(N=Nc2ccccc2)c(N)n1`, the AC50 in assay [14] is 36 µM (active). In addition, the EC50 in assay [15] was > 50 µM (active). In addition, the IC50 in [16] is > 100 µM (active).
Consider `COc1ccc(S(=O)(=O)N2CCOCC2)cc1NC(=O)c1cccc(-n2cccc2)c1`, for which the IC50 in [17] was > 49.8 µM (not active).
For the molecule `CN1c2ccccc2Sc2cc(N=[N+]=[N-])ccc21`, the IC50 in assay [18] is 0.73 µM (active).
For the molecule `[O-]/[N+](=C\c1ccco1)c1ccc(Cl)cc1`, the values for the IC50 in [19], in assay [20] and in [21] were 27.6 µM (inactive), 4.31 µM (active) and > 100 µM (inactive), respectively.
